# Tests used:
# [1] = system: CFSE-labeled CD4 T-cells; assay type: cell-based, human; conditions: NL4-3-infected effector cells
# Experimental: (A) Experimental strategy to assess indirect cell killing in HIV-1-infected human lymphoid cultures. Fresh human tonsil tissue from a single donor is processed into HLAC, and then separated into two fractions. One fraction is challenged with HIV-1 and cultured for 6 days, allowing viral spread. On day 5, the uninfected fraction is treated with AZT (5 μM) and labeled with CFSE (1 μM). On day 6, the infected and CFSE-labeled (i.e., uninfected) cultures are mixed and co-cultured in the presence of AZT. […] After 6 days of co-culturing, the number of viable CFSE-positive cells is determined by flow cytometry. (B) Flow cytometry analysis of the mixed HLACs. Indirect killing is determined by gating on live CFSE-positive cells in the mixed cultures. Effector cells are either infected or uninfected cells. […] CFSE-labeled cells mixed with uninfected or infected cells were cultured in the presence of 5 μM AZT alone or together with 250 nM AMD3100. Data represent live CFSE-positive cells 6 days after co-culture with infected or uninfected effector cells. […] The absolute numbers of viable CFSE-positive CD4 and CD8 T-cells and B cells were determined. Percentages are normalized to the number of viable CFSE-positive cells co-cultured with uninfected cells in the presence of AZT, as depicted by (*). Error bars represent standard deviations of three samples from the same donor. […] See also FIG. 3.
# Human tonsil or splenic tissues from routine tonsillectomies were obtained from the National Disease Research Interchange and the Cooperative Human Tissue Network and processed as previously described (Jekle et al., 2003, J Virol 77:5846-5854). In brief, tonsils or spleen were minced, passed through a 40-μm cell strainer, and cultured in 96-well U-bottomed polystyrene plates (2×10^6 cells/well) in medium (200 μl/well) consisting of RPMI 1640 supplemented with 15% heat-inactivated fetal bovine serum, 100 μg/ml gentamicin, 200 μg/ml ampicillin, 1 mM sodium pyruvate, 1% nonessential amino acids (Mediatech), 2 mM L-glutamine, and 1% fungizone (Invitrogen). All HIV-1 infections were carried out with 20-50 ng of HIV-1 p24^gag. Cells were incubated with the virus for 12-16 h, washed extensively, and supplemented with fresh medium. After day 5, infections were monitored by measuring p24gag levels in the culture medium using a FLAQ assay (Hayden et al., 2003, AIDS 17:629-631). Infected and uninfected cultures were manipulated as described for individual experiments. In “indirect killing” assays, unless otherwise stated, drugs were used at the following concentrations: 5 μM AZT; 250 nM AMD3100; 10 μg/ml T20; 100 nM Efavirenz; 1 μM Nevirapine; 30 μM Raltegravir; 60 μM 118-D-24; 5 μM Amprenavir; 5 μM Saquinavir; 5 μM Indinavir. CFSE-labeled cells were activated with PHA (5 μg/ml) and IL-2 (20 ng/ml) 2 days before mixing with effector cells.
# Uninfected cells (5×10^6/ml) were labeled with 1 μM CFSE (Molecular Probes C1157), treated with 5 μM AZT for 24 h, and co-cultured with effector cells. CFSE readily diffuses into cells, where intracellular esterases cleave the acetate groups, converting it to a fluorescent, membrane-impermeable dye.
# [2] = system: SupT1 cells; experiment: Virion-based fusion assay (BlaM-Vpr); assay type: cell-based; conditions: virions produced in the presence of amprenavir
# Experimental: The virion-based fusion assay is performed in three successive steps: (1) incubation of target cells with virions, (2) loading of target cells with the CCF2/AM dye, and (3) development and detection of the BlaM reaction. SupT1 cells (5×10^5) were incubated with BlaM-Vpr containing virions (400 ng of p24^gag at 37° C. for 2 hours, washed in CO2-independent medium (GibCo BRL), and loaded with CCF2/AM dye as described by the manufacturer (Invitrogen). Briefly, 2 μl of CCF2/AM (1 mM) was mixed with 8 μl of 0.1% acetic acid containing 100 mg/ml Pluronic-F127R and 1 ml of DEEM to constitute the loading solution. Cells were incubated in 100 μl of loading solution for 1 hour at room temperature. After two washes with DEEM, the BlaM reaction was executed for 16 hours at room temperature in 200 μl of DMEM supplemented with 10% FBS and 2.5 mM probenecid, a nonspecific inhibitor of anion transport (Sigma Pharmaceuticals). Finally, the cells were washed once in DMEM and fixed in a 2% solution of paraformaldehyde. The change in emission fluorescence of CCF2 after cleavage by the BlaM-Vpr chimera was monitored by flow cytometry with LSR2 (Becton Dickinson, San Jose, Calif.). Data were collected with DiVa software and analyzed with FlowJo software (Treestar, San Carlos, Calif.).
# [3] = system: SupT1 CD4 T leukemic cells; experiment: Syncytia formation in NL4-3-infected SupT1 cells; assay type: cell-based; conditions: 5 μM protease inhibitor, 2.5 days
# Experimental: (A) The spinoculation procedure. (B) Flow cytometry of viable CD4 versus CD8-T-cells in HLAC three days after spinoculation in the presence of the indicated drugs. Data represent live-gated cells, based on the forward-scatter versus side-scatter profile of the complete culture. Of note, apoptotic cells were included in the analysis of caspases activity and cytokine expression (FIG. 10E, F). Drugs concentrations: AZT 5 μM; Efavirenz 100 nM; AMD3100 250 nM; T20 10 μg/ml. The data are representative results of six independent experiments with six different donors. […] (C) Highly permissive SupT1 CD4 T leukemic cells were infected with NL4-3 and cultivated for 3 days to allow substantial infection but not syncytia formation. […] After 2.5 days of additional culture, the extent of syncytia formation in each sample was evaluated by light microscopy. […] Results are representative of three independent experiments.
# [4] = system: NL4-3 and TR712 virions; experiment: Viral maturation, immunoblot of viral lysates produced in 293T-cells; assay type: cell-based; conditions: NL4-3 and TR712 virions produced with amprenavir
# Experimental: NL4-3 and TR712 viruses were generated in 293T-cells with or without amprenavir, lysed and subjected to SDS-PAGE immunoblotting analysis for gp120, p55 Gag, p24 CA, Blam-Vpr, and free Blam. […] SupT1 cells were mock infected or infected with mature or immature NL4-3 or TR712 virions containing Blam-Vpr. After loading of cells with CCF2 dye, fusion was analyzed by flow cytometry. Percentages are the fraction of cells displaying increased cleaved CCF2 fluorescence, indicating virion fusion.
# The effect of protease inhibitors on viral maturation was assessed first. NL4-3 viruses carrying a β-lactamase-Vpr (BlaM-Vpr) reporter protein were produced in 293T-cells in the presence or absence of the HIV protease inhibitor amprenavir.
# [5] = system: HLAC CD4 T-cells; experiment: HLAC cells overlaid on virus-producing 293T-cells, CD4 T-cell depletion; assay type: cell-based, human; conditions: TR712-transfected 293T-cells in the presence of amprenavir
# Experimental: HLACs were infected with viruses derived from the indicated HIV proviral clones in the presence of the indicated concentrations of AZT or in the absence of drugs. Six days after infection the amount of p24^gag in the medium was determined by FLAQ assay. The amount of p24^gag in the medium after infection wash (day 0) was defined as 0%. […] Viral incorporation of endogenous A3G was measured by immunoblot analysis of purified NL4-3 and Δvif NL4-3 virions harvested from 1 ml of supernatant from infected HLACs. Doses reflect 1:10 dilutions. […] Resting or activated CFSE-labeled cells were co-cultured with cells infected with WT or Δvif NL4-3 in the presence or absence of the following drugs, AZT (5 μM), AMD3100 (250 nM), the NNRTIs Efavirenz (100 nM), and Nevirapine (1 μM), or the integration inhibitors Raltegravir (30 μM) and 118-D-24 (60 μM). Data are representative of four independent experiments performed with cells from four different donors. (E) A method to assess indirect killing in HLAC with non-infectious HIV-1 clones. Fresh human tonsil is processed into HLAC and cells are cultured in suspension. At the same time 293T-cells are transfected with 1 μg HIV-1 DNA in a 24-well plate. After 12 hours, 293T-cells are washed and overlayed with 3×10^6 HLAC cells in RPMI in the presence of the indicated drugs. Virus-producing 293T-cells directly interact with target overlaying HLAC cells. After 24 hours, the HLAC suspensions are collected from wells and analyzed by flow cytometry. […] HLAC were cultured with the indicated drugs 3 hours before co-culture with 293T-cells. Percentages are normalized to the number of viable CD4 T-cells in HLAC overlaying non-transfected 293T-cells in the presence of AZT, as depicted by (*). Error bars represent standard error of the mean of three experiments performed using cells from three different HLAC donors.
compound,measurement,setting,value
CC(C)CN(C[C@@H](O)[C@H](Cc1ccccc1)NC(=O)O[C@H]1CCOC1)S(=O)(=O)c1ccc(N)cc1 [Amprenavir],indirect killing (loss) of resting CFSE-labeled CD4 T-cells,[1],inhibit indirect killing
same,decline in fusogenic properties of immature NL4-3 viruses,[2],90%
same,fusion capacity retained by immature TR712,[2],40%
same,syncytia formation / cell-cell fusion,[3],do not block syncytia formation
same,Gag processing in virions,[4],an uncleaved form of p55 Gag polypeptide rather than the mature p24 CA protein accumulated
same,CD4 T-cell killing by TR712 viruses,[5],prevented CD4 T-cell killing by TR712 viruses
